Assay results taken from PubChem BioAssay (NCI).
Several values for one entry are separate records, joined by “and”; a condition that tells them apart may be missing. Equal entries are not always repeated.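 Where inhibition never reached the appropriate level, the endpoint shown equals the highest concentration tested. Otherwise, values were interpolated linearly from a five-concentration, 48-hour dose response in 96-well plates. At the GI50, growth is halved. TGI denotes the concentration required for complete inhibition of growth.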

system: MDA-MB-468 breast; experiment: NCI anticancer screen, dose series, 48 h

SMILES	GI50	TGI
COc1cc(C(=O)/C=C/c2c(C)n([O-])c3ccc(C(F)(F)F)cc3[n+]2=O)cc(OC)c1OC	1590 nM	3.49 µM
COc1ccc(C(O)c2cc3c(N)c(C(=O)Nc4ccc(Br)cc4)sc3nc2C)cc1 (centres undefined)	2190 nM	9.09 µM
FC(F)(F)c1cc(Nc2cccc(Oc3ccc(NC4=NCCN4)nc3)c2)ccc1Cl	1610 nM	3.44 µM
C[C@]12CC[C@@H]3c4ccc(O)cc4CC[C@H]3[C@@H]1CC[C@@H]2NS(=O)(=O)c1cccc(OC(F)(F)F)c1	2610 nM	8.01 µM
CC(C)OC(=O)Nc1ccc(-c2nc(-c3cccc(OCCN4CCOCC4)c3)c(-c3ccnc(Br)c3)[nH]2)cc1	2010 nM	5.3 µM
Nc1nonc1-c1nc2cnccc2n1C1CCCCC1	6940 nM	> 25 µM
COC(=O)/C=C1/SC(=Nc2ccc(C(F)(F)F)cc2)N(CCc2c[nH]c3ccc(O)cc23)C1=O	2110 nM	5.72 µM
CCOC(=O)c1ccc2c(c1)c1c(C)c3cnccc3c(C)c1n2C	289 nM	0.962 µM
COC(=O)C(=Cc1ccccc1[N+](=O)[O-])C(=O)OC	5030 nM	28.2 µM
COC(=O)c1ccc2[nH]c(O)c(C(=Nc3ccc(N(C)C(=O)CN4CCN(C)CC4)cc3)c3ccc(OC)cc3)c2c1	1600 nM	3.35 µM
O=C(Nc1ccc(OCc2nnc(-c3ccc(Cl)cc3)o2)c(F)c1)Nc1ccc(Cl)c(Cl)c1	2990 nM	17.7 µM
CN1CCN(Cc2ccc(NC(=O)c3cncc(C#Cc4cnc5ccc(N6CCN(C)CC6)nn45)c3)cc2C(F)(F)F)CC1	1380 nM	2.76 µM
CCOC(=O)Nc1nc2cc(OC)c(OC)c(OC)c2s1	> 100000 nM	> 100 µM
CC#CC#Cc1cccc(=O)o1	1710 nM	5.32 µM
COC12COC(=O)C1C(c1ccc3c(c1)OCO3)c1cc3c(cc1O2)OCO3 (centres undefined)	23000 nM	> 100 µM
Clc1ccc(-c2ccc(CNCC3CCNCC3)o2)c(-c2ccccc2)c1	1570 nM	3.25 µM
COc1ccc(C2C(C#N)=C(N)Oc3c2sc2c(C)cccc32)cc1 (centres undefined)	214 nM	0.641 µM
O=C(/C=C/c1cccc(O)c1)c1cccc(-n2cc(-c3ccc(Cl)cc3)[nH]c2=O)c1	1700 nM	3.83 µM

SMILES	GI50	TGI
C[C@@H]1CN(c2ccc3ncc(C#Cc4cncc(C(=O)Nc5ccc(CN6CCN(C)CC6)c(C(F)(F)F)c5)c4)n3n2)C[C@H](C)O1	35.5 nM	0.136 µM
COc1ccc(/C=C/C(=O)c2ccc(NC(=O)CSc3nnc(-c4ccc(OC)c(OC)c4)n3-c3ccccc3)cc2)cc1	1960 nM	4.55 µM
CCCOC(=O)c1ccc2c(c1)[N+](=O)C(C(=O)c1ccccc1)=C(C(F)(F)F)[N+]2=O	1710 nM	3.51 µM
O=C1C=C(Nc2ccc([N+](=O)[O-])cc2)c2ccccc2C1=O	3050 nM	13.4 µM
CCCc1n(Cc2ccc3ccccc3c2)c2ccccc2[n+]1Cc1ccc2ccccc2c1	130 nM	0.716 µM
Cc1cc2nc3c4cc(C=O)ccc4n(CCN(C)C)c3nc2cc1C	1160 nM	3.21 µM
CC(=O)Nc1cccc(C#Cc2cncnc2Nc2ccc(OCc3cccc(F)c3)c(Cl)c2)n1	557 nM	> 6.26 µM
C=CCSSC1N=CNc2nc[nH]c21 (centres undefined)	319 nM	14.7 µM
Cn1cc(C2=C(c3cn(C)c4ccc(OCc5ccccc5)cc34)C(=O)NC2=O)c2ccccc21	> 25000 nM	> 25 µM
CC/C(=C(\c1ccc(Cl)cc1)c1ccc(OCCN2CCCCC2)cc1)c1ccc(O)cc1	1650 nM	3.32 µM
C=CC(=O)N1CC2(CCC(n3nc(-c4ccc(Oc5ccccc5)cc4)c4c(N)ncnc43)CC2)C1	244 nM	1.62 µM
Cc1ccc2cc3c(N)c4c(C)ccc(C)c4nc3nc2c1	1470 nM	3.73 µM
CC(=O)N1CCN([C@H]2CCC[C@@H](NC(=O)c3cc4c(F)ccc(C)c4[nH]3)C2)CC1	9060 nM	37.2 µM
CCN(CC)CCNc1ccc(C)c2sc3ccccc3c(=O)c12 (tested in a mixture with another compound)	2060 nM and 1980 nM	4.22 µM and 4.3 µM
CC[C@H](Nc1cc(C)nc(N)n1)c1nc2cccc(NCc3ccc(C(=O)NO)cc3)c2c(=O)n1-c1ccccc1	1460 nM	3.24 µM
Cc1ccc2c(c1)c(C1=C(c3cn(C)c4ccccc34)C(=O)NC1=O)cn2C	1030 nM	> 12.6 µM
CC(=O)O[C@H]1C(=O)[C@@]2(C)[C@H]([C@H](OC(=O)c3ccccc3)[C@]3(O)C[C@H](OC(=O)[C@H](OC(=O)OC[C@@H]4COC(C)(C)O4)[C@@H](NC(=O)c4ccccc4)c4ccccc4)C(C)=C1C3(C)C)[C@]1(OC(C)=O)CO[C@@H]1C[C@@H]2O	28 nM	–
